Results published in PubChem BioAssay (NCI).
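Exposure lasted 48 hours, with cells grown in 96-well plates and compounds tested at five concentrations. At the TGI there is no net growth.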

Columns and labels:
Test in all cases: NCI tumour cell line growth inhibition, 48 h
[1] = system: RPMI-8226 leukemia
[2] = system: NCI-H226 lung
[3] = system: MDA-N
[4] = system: SF-295 CNS
[5] = system: COLO 205 colon
[6] = system: MDA-MB-231 breast
[7] = system: MOLT-4 leukemia
[8] = system: TK-10 renal
[9] = system: SN12C renal
[10] = system: NCI/ADR-RES ovarian
[11] = system: HS 578T breast
[12] = system: HOP-62 NSCLC
[13] = system: MALME-3M melanoma
[14] = system: T-47D breast
[15] = system: OVCAR-3 ovarian
[16] = system: MCF7 breast
[17] = system: PC-3 prostate
[18] = system: NCI-H460 lung
[19] = system: SK-MEL-5 melanoma
[20] = system: LOX IMVI melanoma
[21] = system: BT-549 breast
[22] = system: HCT-116 colon
[23] = system: OVCAR-5 ovarian
[24] = system: UO-31 renal
[25] = system: HL-60(TB) leukemia
[26] = system: OVCAR-4 ovarian
[27] = system: DU-145 prostate
[28] = system: SW-620 colon
[29] = system: UACC-62 melanoma
[30] = system: ACHN renal
[31] = system: HT29 colon
[32] = system: SK-MEL-28 melanoma
[33] = system: 786-0 renal
[34] = system: UACC-257 melanoma
[35] = system: NCI-H522 lung
[36] = system: IGROV1 ovarian
[37] = system: M14 melanoma
[38] = system: HCT-15 colon
[39] = system: HOP-92 NSCLC
[40] = system: SF-539 CNS
[41] = system: SNB-75 CNS
[42] = system: U251 CNS
[43] = system: MDA-MB-435
[44] = system: HCC-2998 colon
[45] = system: CCRF-CEM leukemia
[46] = system: SNB-19 CNS
[47] = system: SK-OV-3 ovarian
[48] = system: OVCAR-8 ovarian
[49] = system: KM12 colon
[50] = system: CAKI-1 renal
[51] = system: SF-268 CNS
[52] = system: SR leukemia
[53] = system: NCI-H23 lung
[54] = system: SK-MEL-2 melanoma
[55] = system: A549 NSCLC
[56] = system: K-562 leukemia
[57] = system: EKVX NSCLC
[58] = system: RXF 393 renal
[59] = system: A498 renal

CC1(C)S[C@@H]2[C@H](NC(=O)/C=C/c3ccccc3)C(=O)N2[C@H]1C(=O)O
TGI [1]: > 100 µM | TGI [2]: > 100 µM | TGI [3]: > 100 µM | TGI [4]: > 100 µM | TGI [5]: > 100 µM | TGI [6]: > 100 µM | TGI [7]: > 100 µM | TGI [8]: > 100 µM | TGI [9]: > 100 µM | TGI [10]: > 100 µM | TGI [11]: > 100 µM | TGI [12]: > 100 µM | TGI [13]: > 100 µM | TGI [14]: > 100 µM | TGI [15]: > 100 µM | TGI [16]: > 100 µM | TGI [17]: > 100 µM | TGI [18]: > 100 µM | TGI [19]: > 100 µM | TGI [20]: > 100 µM | TGI [21]: > 100 µM | TGI [22]: > 100 µM | TGI [23]: > 100 µM | TGI [24]: > 100 µM | TGI [25]: > 100 µM | TGI [26]: > 100 µM | TGI [27]: > 100 µM | TGI [28]: > 100 µM | TGI [29]: > 100 µM | TGI [30]: > 100 µM | TGI [31]: > 100 µM | TGI [32]: > 100 µM | TGI [33]: > 100 µM | TGI [34]: > 100 µM | TGI [35]: > 100 µM | TGI [36]: > 100 µM | TGI [37]: > 100 µM | TGI [38]: > 100 µM | TGI [39]: > 100 µM | TGI [40]: > 100 µM | TGI [41]: > 100 µM | TGI [42]: > 100 µM | TGI [43]: > 100 µM | TGI [44]: > 100 µM | TGI [45]: > 100 µM | TGI [46]: > 100 µM | TGI [47]: > 100 µM | TGI [48]: > 100 µM | TGI [49]: > 100 µM | TGI [50]: > 100 µM | TGI [51]: > 100 µM | TGI [52]: > 100 µM | TGI [53]: > 100 µM | TGI [54]: > 100 µM | TGI [55]: > 100 µM

CN(C)CCC(C(=O)C(C)(C)C)c1ccccn1 (stereo unspecified)
TGI [1]: > 100 µM | TGI [2]: > 100 µM | TGI [3]: > 100 µM | TGI [4]: > 100 µM | TGI [5]: > 100 µM | TGI [6]: > 100 µM | TGI [8]: > 100 µM | TGI [56]: > 100 µM | TGI [9]: > 100 µM | TGI [10]: > 100 µM | TGI [11]: > 100 µM | TGI [12]: > 100 µM | TGI [13]: > 100 µM | TGI [14]: > 100 µM | TGI [15]: 93.6 µM | TGI [16]: > 100 µM | TGI [17]: > 100 µM | TGI [18]: > 100 µM | TGI [19]: > 100 µM | TGI [20]: > 100 µM | TGI [21]: > 100 µM | TGI [22]: > 100 µM | TGI [23]: > 100 µM | TGI [24]: > 100 µM | TGI [25]: > 100 µM | TGI [26]: > 100 µM | TGI [27]: > 100 µM | TGI [28]: > 100 µM | TGI [29]: > 100 µM | TGI [30]: > 100 µM | TGI [31]: > 100 µM | TGI [32]: > 100 µM | TGI [33]: > 100 µM | TGI [34]: > 100 µM | TGI [35]: > 100 µM | TGI [36]: > 100 µM | TGI [37]: > 100 µM | TGI [38]: > 100 µM | TGI [39]: > 100 µM | TGI [41]: > 100 µM | TGI [42]: > 100 µM | TGI [43]: > 100 µM | TGI [44]: > 100 µM | TGI [45]: > 100 µM | TGI [46]: > 100 µM | TGI [47]: > 100 µM | TGI [48]: > 100 µM | TGI [57]: > 100 µM | TGI [49]: > 100 µM | TGI [58]: > 100 µM | TGI [50]: > 100 µM | TGI [51]: > 100 µM | TGI [52]: > 100 µM | TGI [59]: > 100 µM | TGI [53]: > 100 µM | TGI [54]: > 100 µM | TGI [55]: > 100 µM

COc1nc2c(c(=O)n1C)NC(C(O)C(O)CO)C=N2 (stereo unspecified)
TGI [1]: > 10 µM | TGI [2]: > 10 µM | TGI [3]: > 10 µM | TGI [4]: > 10 µM | TGI [5]: > 10 µM | TGI [6]: > 10 µM | TGI [7]: > 10 µM | TGI [8]: > 10 µM | TGI [56]: > 10 µM | TGI [9]: > 10 µM | TGI [10]: > 10 µM | TGI [11]: > 10 µM | TGI [12]: > 10 µM | TGI [13]: > 10 µM | TGI [14]: > 10 µM | TGI [15]: > 10 µM | TGI [16]: > 10 µM | TGI [17]: > 10 µM | TGI [18]: > 10 µM | TGI [19]: > 10 µM | TGI [20]: > 10 µM | TGI [21]: > 10 µM | TGI [22]: > 10 µM | TGI [23]: > 10 µM | TGI [24]: > 10 µM | TGI [25]: > 10 µM | TGI [26]: > 10 µM | TGI [27]: > 10 µM | TGI [28]: > 10 µM | TGI [29]: > 10 µM | TGI [30]: > 10 µM | TGI [31]: > 10 µM | TGI [32]: > 10 µM | TGI [33]: > 10 µM | TGI [34]: > 10 µM | TGI [35]: > 10 µM | TGI [36]: > 10 µM | TGI [37]: > 10 µM | TGI [38]: > 10 µM | TGI [39]: > 10 µM | TGI [40]: > 10 µM | TGI [41]: > 10 µM | TGI [42]: > 10 µM | TGI [43]: > 10 µM | TGI [44]: > 10 µM | TGI [45]: > 10 µM | TGI [46]: > 10 µM | TGI [47]: > 10 µM | TGI [48]: > 10 µM | TGI [57]: > 10 µM | TGI [49]: > 10 µM | TGI [58]: > 10 µM | TGI [50]: > 10 µM | TGI [51]: > 10 µM | TGI [52]: > 10 µM | TGI [59]: > 10 µM | TGI [53]: > 10 µM | TGI [54]: > 10 µM | TGI [55]: > 10 µM
